Data from ChEMBL document CHEMBL1125524, “Adenosine A1 antagonists. 2. Structure-activity relationships on diuretic activities and protective effects against acute renal failure” (J Med Chem, 1992).
Values joined by “and” are separate entries in the source; they are usually repeats but may differ in a detail not shown here. Equal values may be shown once.

Experiments:
Rattus norvegicus [1] = test: Ratio of sodium ion/potassium ion concentration in treated rats to that in control rats, at a peroral dose of 0.4 mg/Kg; type: functional
Rattus norvegicus [2] = test: Oral diuretic activity was measured after oral administration of 1.6 mg/kg to rats(control volume is 1.12+/-0.05); type: functional, Urine
Rattus norvegicus [3] = test: Serum creatinine concentration measured after intraperitoneal administration of 1 mg/kg of compound to rats(vehicle 4.5+/-0.24); type: functional
Adenosine A2 receptor = Adenosine A2 receptor (Rattus norvegicus, UniProt P29276+P30543)
Rattus norvegicus [4] = test: Ratio of urinary excretion value (urinary volume) in treated rats to that in control rats, at a peroral dose of 0.1 mg/Kg; type: functional, Urine
Rattus norvegicus [5] = test: Effect on urinary excretion potassium and sodium after oral administration of 1.6 mg/kg to rats(potassium and sodium excretion in control rat is 0.189+/-0.005); type: functional, Urine
Rattus norvegicus [6] = test: Ratio of urinary excretion value (Na+ concentration) in treated rats to that in control rats, at a peroral dose of 1.6 mg/Kg; type: functional, Urine
Rattus norvegicus [7] = test: Oral diuretic activity was measured after oral administration of 0.1 mg/kg to rats(control volume is 0.96+/-0.09); type: functional, Urine
Rattus norvegicus [8] = test: Serum creatinine concentration measured after intraperitoneal administration of 0.1 mg/kg of compound to rats(vehicle 5.43+/-0.11); type: functional
Rattus norvegicus [9] = test: Ratio of urinary excretion value (Na+ concentration) in treated rats to that in control rats, at a peroral dose of 0.4 mg/Kg; type: functional, Urine
Rattus norvegicus [10] = test: Ratio of urinary excretion value (Na+ concentration) in treated rats to that in control rats, at a peroral dose of 0.01 mg/Kg; type: functional, Urine
Rattus norvegicus [11] = test: Ratio of urinary excretion value (Na+ concentration) in treated rats to that in control rats, at a peroral dose of 0.1 mg/Kg; type: functional, Urine
Rattus norvegicus [12] = test: Ratio of sodium ion/potassium ion concentration in treated rats to that in control rats, at a peroral dose of 1.6 mg/Kg; type: functional
Rattus norvegicus [13] = test: Urea nitrogen concentration measured after intraperitoneal administration of 0.1 mg/kg of compound to rats(vehicle 141.3+/-8.3); type: functional
Rattus norvegicus [14] = test: Effect on urinary excretion potassium and sodium after oral administration of 0.1 mg/kg to rats(potassium and sodium excretion in control rat is 0.147+/-0.015); type: functional, Urine
Rattus norvegicus [15] = organism: Rattus norvegicus; test: Percent inhibition of serum creatinine by the compound given as ratio of Cr value in treated to vehicle treated ones; type: functional
Rattus norvegicus [16] = test: Ratio of sodium ion/potassium ion concentration in treated rats to that in control rats, at a peroral dose of 0.1 mg/Kg; type: functional
Rattus norvegicus [17] = test: Ratio of urinary excretion value (urinary volume) in treated rats to that in control rats, at a peroral dose of 0.01 mg/Kg; type: functional, Urine
Rattus norvegicus [18] = test: Ratio of sodium ion/potassium ion concentration in treated rats to that in control rats, at a peroral dose of 0.01 mg/Kg; type: functional
Rattus norvegicus [19] = test: Ratio of urinary excretion value (urinary volume) in treated rats to that in control rats, at a peroral dose of 1.6 mg/Kg; type: functional, Urine
Rattus norvegicus [20] = test: Effect on urinary excretion potassium and sodium after oral administration of 0.4 mg/kg to rats(potassium and sodium excretion in control rat is 0.0.169+/-0.012); type: functional, Urine
Rattus norvegicus [21] = test: Effect on urinary excretion potassium and sodium after oral administration of 0.01 mg/kg to rats(potassium and sodium excretion in control rat is 0.180+/-0.017); type: functional, Urine
Rattus norvegicus [22] = test: Urea nitrogen concentration measured after intraperitoneal administration of 1 mg/kg of compound to rats(vehicle 151.5+/-7.4); type: functional
Rattus norvegicus [23] = test: Oral diuretic activity was measured after oral administration of 0.4 mg/kg to rats(control volume is 0.97+/-0.05); type: functional, Urine
Rattus norvegicus [24] = test: Oral diuretic activity was measured after oral administration of 0.01 mg/kg to rats(control volume is 1.05+/-0.11); type: functional, Urine
Rattus norvegicus [25] = test: Ratio of urinary excretion value (urinary volume) in treated rats to that in control rats, at a peroral dose of 0.4 mg/Kg; type: functional, Urine
Rattus norvegicus [26] = test: Oral diuretic activity was measured after oral administration of 25 mg/kg to rats(control volume is […]+/-[…]); type: functional, Urine
Rattus norvegicus [27] = test: Ratio of urinary excretion value (Na+ concentration) in treated rats to that in control rats, at a peroral dose of 25 mg/Kg; type: functional, Urine
Rattus norvegicus [28] = test: Serum creatinine concentration measured after intraperitoneal administration of 1 mg/kg of compound to rats(vehicle 4.41+/-0.17); type: functional
Rattus norvegicus [29] = test: Percent inhibition of serum creatinine by the compound given as ratio of Cr value in treated to vehicle treated ones after intraperitoneal administration of 1 mg/kg of compound to rats(vehicle 4.41+/-0.17); type: functional; conditions: ip
Rattus norvegicus [30] = test: Effect on urinary excretion potassium and sodium after oral administration of 0.4 mg/kg to rats(potassium and sodium excretion in control rat is 0.261+/-0.0087); type: functional, Urine
Rattus norvegicus [31] = test: Effect on urinary excretion potassium and sodium after oral administration of 25 mg/kg to rats(potassium and sodium excretion in control rat is 0.252+/-0.022); type: functional, Urine
Rattus norvegicus [32] = test: Urea nitrogen concentration measured after intraperitoneal administration of 1 mg/kg of compound to rats(vehicle 147.9+/-6.1); type: functional
Adenosine receptor A1 = biological target: T1, Adenosine receptor A1 (Cavia porcellus, UniProt P47745)
T1 sequence (P47745 whole entry): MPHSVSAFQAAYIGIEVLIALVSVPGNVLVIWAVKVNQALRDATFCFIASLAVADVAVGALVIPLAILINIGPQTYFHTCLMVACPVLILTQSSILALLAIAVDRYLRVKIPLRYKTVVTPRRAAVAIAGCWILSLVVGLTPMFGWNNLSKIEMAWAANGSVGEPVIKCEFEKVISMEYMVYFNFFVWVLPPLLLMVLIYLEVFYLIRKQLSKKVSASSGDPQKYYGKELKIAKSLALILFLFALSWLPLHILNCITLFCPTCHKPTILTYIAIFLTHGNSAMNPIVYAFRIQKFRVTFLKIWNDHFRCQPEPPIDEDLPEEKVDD
Description: Binding affinity against adenosine A1 receptor in guinea pig forebrain membranes using N6-[3H]cyclohexyladenosine as radioligand

Rattus norvegicus [33] = test: Ratio of urinary excretion value (urinary volume) in treated rats to that in control rats, at a peroral dose of 25 mg/Kg; type: functional, Urine
Rattus norvegicus [34] = test: Oral diuretic activity was measured after oral administration of 0.4 mg/kg to rats(control volume is […]+/-[…]); type: functional, Urine
Rattus norvegicus [35] = test: Ratio of urinary excretion value (urinary volume) in treated rats to that in control rats, at a peroral dose of 6.25 mg/Kg; type: functional, Urine
Rattus norvegicus [36] = test: Percent inhibition of Urea nitrogen by the compound given as ratio of UN value in treated to vehicle treated ones after intraperitoneal administration of 1 mg/kg of compound to rats(vehicle 147.9+/-6.1); type: functional; conditions: ip
Rattus norvegicus [37] = test: Ratio of urinary excretion value (Na+ concentration) in treated rats to that in control rats, at a peroral dose of 6.25 mg/Kg; type: functional, Urine

In the case of CCCCn1c(=O)c2nc(C34CC5CC(CC3C5)C4)[nH]c2n(CCCC)c1=O, the “Na+/K+” value (Rattus norvegicus [1]) is reported as 1.89, the Urine volume (Rattus norvegicus [2]) is reported as 2.52 ml 6hr-1 100g-1 and the Cr (Rattus norvegicus [3]) is reported as 2.82 mg/dL. For the same compound, the Ki (Adenosine A2 receptor) was 1100 nM, the T/C (Rattus norvegicus [4]) was 1.83 and the Na (Rattus norvegicus [5]) was 0.426 m equiv 6hr-1 100g-1. It also gave a T/C (Rattus norvegicus [6]) of 2.26, a Urine volume (Rattus norvegicus [7]) of 1.76 ml 6hr-1 100g-1 and a Cr (Rattus norvegicus [8]) of 2.63 mg/dL. It also gave a T/C (Rattus norvegicus [9]) of 2.45, a T/C (Rattus norvegicus [10]) of 0.98 and a T/C (Rattus norvegicus [11]) of 1.89. The “Na+/K+” value (Rattus norvegicus [12]) was 1.61, the UN (Rattus norvegicus [13]) was 119.4 mg/dL and the Na (Rattus norvegicus [14]) was 0.279 m equiv 6hr-1 100g-1. For the same compound, the Inhibition (Rattus norvegicus [15]) was 45% and 19%, the “Na+/K+” value (Rattus norvegicus [16]) was 1.58 and the T/C (Rattus norvegicus [17]) was 0.74. For the same compound, the “Na+/K+” value (Rattus norvegicus [18]) was 1.05, the T/C (Rattus norvegicus [19]) was 2.25 and the Na (Rattus norvegicus [20]) was 0.412 m equiv 6hr-1 100g-1. The Na (Rattus norvegicus [21]) was 0.176 m equiv 6hr-1 100g-1, the UN (Rattus norvegicus [22]) was 62.1 mg/dL and the Urine volume (Rattus norvegicus [23]) was 2.5 ml 6hr-1 100g-1. The Urine volume (Rattus norvegicus [24]) was 0.78 ml 6hr-1 100g-1 and the T/C (Rattus norvegicus [25]) was 2.58.
CCCn1c(=O)c2nc(C3CC4C=CC3C4)[nH]c2n(CCC)c1=O (stereo in doubt; 17) was tested, and the “Na+/K+” value (Rattus norvegicus [1]) was 0.98, the Urine volume (Rattus norvegicus [26]) was 2.47 ml 6hr-1 100g-1 and the T/C (Rattus norvegicus [27]) was 1.72. It also gave a Cr (Rattus norvegicus [28]) of 2.08 mg/dL, a Ki (Adenosine A2 receptor) of 480 nM and an inhibition in vivo at 1 mg/kg (Rattus norvegicus [29]) of 53%. For the same compound, the T/C (Rattus norvegicus [9]) was 0.89, the Na (Rattus norvegicus [30]) was 0.233 m equiv 6hr-1 100g-1 and the Na (Rattus norvegicus [31]) was 0.434 m equiv 6hr-1 100g-1. For the same compound, the UN (Rattus norvegicus [32]) was 80.4 mg/dL, the Ki (Adenosine receptor A1) was 4.3 nM and the T/C (Rattus norvegicus [33]) was 2.06. For the same compound, the Urine volume (Rattus norvegicus [34]) was 1.32 ml 6hr-1 100g-1, the T/C (Rattus norvegicus [35]) was 2.56 and the inhibition in vivo at 1 mg/kg (Rattus norvegicus [36]) was 56%. It also gave a T/C (Rattus norvegicus [37]) of 2.51 and a T/C (Rattus norvegicus [25]) of 0.93.
